Laboratory results published in patent US11634397B2, “Process and intermediates for the preparation of Fluensulfone” (ADAMA MAKHTESHIM LTD., priority 2018, dated 2023).

Experiment: Solubility of 2-mercaptothiazole estimated in a variety of solvents at room temperature
Type: physicochemical
Conditions: stirred overnight
Experimental: The solubility of 2-mercaptothiazole was estimated in a variety of solvents at room temperature. Large amount of 2-mercaptothiazole was added to the tested solvent. The mixture was stirred overnight. The residual solid was removed by filtration. Then the solution was analyzed by quantitative analysis vs. analytical standard to determine the concentration of the 2-mercaptothiazole.

Solubility of 2-mercaptothiazole (solvent 1,2-dichlorobenzene): 1.91 wt %
Solubility of 2-mercaptothiazole (solvent 1,2-dichloroethane): 8.43 wt %
Solubility of 2-mercaptothiazole (solvent CPME (cyclopentyl methyl ether)): 6.5 wt %
Solubility of 2-mercaptothiazole (solvent IBN (iso-butyronitrile)): 20.2 wt %
Solubility of 2-mercaptothiazole (solvent IPAc (isopropyl acetate)): 14.8 wt %
Solubility of 2-mercaptothiazole (solvent MCB (mono-chlorobenzene)): 2.4 wt %
Solubility of 2-mercaptothiazole (solvent NBN (n-butyronitrile)): 28.9 wt %
Solubility of 2-mercaptothiazole (solvent pentanol): 19.1 wt %
Solubility of 2-mercaptothiazole (solvent toluene): 2.2 wt %
SMILES: Sc1nccs1 [2-mercaptothiazole]
